Source: ChEMBL document CHEMBL1201862, “PubChem BioAssay data set” (2004)
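Grown in 96-well plates, cells were treated for 48 hours with each compound at five concentrations. Insufficient inhibition: endpoint recorded as highest concentration tested. At the GI50, growth is halved.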 Calls of active or inactive are those of the source. No stated cut-off is given here; in the data, active = GI50 up to about 1.1 µM and inactive = higher.

Tests used:
Experiment in all cases: growth of human tumour cells (NCI), 48 h
[1] = system: A549
[2] = system: OVCAR-3
[3] = system: XF498
[4] = system: HCT-116
[5] = system: SR
[6] = system: LXFL 529
[7] = system: UACC-62
[8] = system: HOP-92
[9] = system: UACC-257
[10] = system: SNB-78
[11] = system: SNB-19
[12] = system: EKVX
[13] = system: NCI-H522
[14] = system: MDA-N
[15] = system: NCI-H460
[16] = system: A498
[17] = system: SNB-75
[18] = system: Malme-3M
[19] = system: M14
[20] = system: HL-60
[21] = system: SK-OV-3
[22] = system: LOX IMVI
[23] = system: TK-10
[24] = system: RXF 393
[25] = system: CAKI-1
[26] = system: K562
[27] = system: DLD-1
[28] = system: DMS-114
[29] = system: SN12C
[30] = system: DMS-273
[31] = system: KM-20L2
[32] = system: HT-29
[33] = system: PC-3
[34] = system: RXF 631
[35] = system: SW-620
[36] = system: OVCAR-5
[37] = system: HCC 2998
[38] = system: COLO 205
[39] = system: U-251
[40] = system: NCI-H23
[41] = system: KM12
[42] = system: NCI/ADR-RES
[43] = system: MDA-MB-231
[44] = system: Hs-578T
[45] = system: RPMI-8226
[46] = system: MDA-MB-435
[47] = system: SK-MEL-2
[48] = system: HOP-18
[49] = system: OVCAR-4
[50] = system: NCI-H226
[51] = system: SK-MEL-28
[52] = system: ACHN
[53] = system: SF-268
[54] = system: SF-295
[55] = system: HOP-62
[56] = system: DU-145
[57] = system: SK-MEL-5
[58] = system: CCRF-CEM
[59] = system: MCF7
[60] = system: HCT-15
[61] = system: UO-31
[62] = system: M19-MEL
[63] = system: IGROV-1
[64] = system: SF-539
[65] = system: 786-0
[66] = system: OVCAR-8
[67] = system: BT-549
[68] = system: T47D
[69] = system: MOLT-4

For `O=P1(N(CCCl)CCCl)NCCCO1` (stereo not drawn) [CYCLOPHOSPHAMIDE ANHYDROUS], the GI50 [1] was > 239 µM (inactive), the GI50 [2] was > 243 µM (inactive) and the GI50 [3] was 177 µM (inactive). For the same compound, the GI50 [4] was > 250 µM (inactive), the GI50 [5] was > 250 µM (inactive) and the GI50 [6] was > 250 µM (inactive). For the same compound, the GI50 [7] was > 250 µM (inactive), the GI50 [8] was > 246 µM (inactive) and the GI50 [9] was 211 µM (inactive). For the same compound, the GI50 [10] was > 209 µM (inactive), the GI50 [11] was > 250 µM (inactive) and the GI50 [12] was > 250 µM (inactive). The GI50 [13] was > 250 µM (inactive), the GI50 [14] was > 250 µM (inactive) and the GI50 [15] was > 238 µM (inactive). The GI50 [16] was > 238 µM (inactive), the GI50 [17] was > 232 µM (inactive) and the GI50 [18] was > 250 µM (inactive). The GI50 [19] was > 250 µM (inactive), the GI50 [20] was 183 µM (inactive) and the GI50 [21] was 248 µM (inactive). For the same compound, the GI50 [22] was 248 µM (inactive), the GI50 [23] was > 250 µM (inactive) and the GI50 [24] was > 250 µM (inactive). The GI50 [25] was > 192 µM (inactive), the GI50 [26] was 213 µM (inactive) and the GI50 [27] was > 250 µM (inactive). For the same compound, the GI50 [28] was > 250 µM (inactive), the GI50 [29] was > 250 µM (inactive) and the GI50 [30] was > 246 µM (inactive). For the same compound, the GI50 [31] was > 250 µM (inactive), the GI50 [32] was > 226 µM (inactive) and the GI50 [33] was > 250 µM (inactive). The GI50 [34] was > 250 µM (inactive), the GI50 [35] was > 250 µM (inactive) and the GI50 [36] was > 239 µM (inactive). The GI50 [37] was 193 µM (inactive), the GI50 [38] was > 250 µM (inactive) and the GI50 [39] was > 250 µM (inactive). The GI50 [40] was > 235 µM (inactive), the GI50 [41] was > 238 µM (inactive) and the GI50 [42] was > 250 µM (inactive). The GI50 [43] was > 250 µM (inactive), the GI50 [44] was > 250 µM (inactive) and the GI50 [45] was > 250 µM (inactive). The GI50 [46] was > 250 µM (inactive), the GI50 [47] was > 238 µM (inactive) and the GI50 [48] was 121 µM (inactive). For the same compound, the GI50 [49] was > 250 µM (inactive), the GI50 [50] was 249 µM (inactive) and the GI50 [51] was > 250 µM (inactive). The GI50 [52] was > 250 µM (inactive), the GI50 [53] was > 250 µM (inactive) and the GI50 [54] was 169 µM (inactive). For the same compound, the GI50 [55] was > 247 µM (inactive), the GI50 [56] was > 250 µM (inactive) and the GI50 [57] was > 242 µM (inactive). For the same compound, the GI50 [58] was 200 µM (inactive), the GI50 [59] was > 250 µM (inactive) and the GI50 [60] was > 250 µM. The GI50 [61] was > 250 µM (inactive), the GI50 [62] was 218 µM (inactive) and the GI50 [63] was > 216 µM (inactive). For the same compound, the GI50 [64] was > 250 µM (inactive), the GI50 [65] was > 250 µM (inactive) and the GI50 [66] was > 238 µM (inactive). For the same compound, the GI50 [67] was > 250 µM (inactive), the GI50 [68] was > 88.7 µM (inactive) and the GI50 [69] was 249 µM (inactive).

`COC(=O)C12OCC34C(CC5C(C)C6=CC(=O)OC6=CC5(C)C3C(O)C1O)OC(=O)C(OC(C)=O)C24` (stereo not drawn) was tested, and the GI50 [1] was 19.8 µM (inactive), the GI50 [2] was 14.3 µM (inactive) and the GI50 [3] was 12.2 µM (inactive). For the same compound, the GI50 [4] was 13.7 µM (inactive), the GI50 [5] was 18.3 µM (inactive) and the GI50 [6] was 14.6 µM (inactive). The GI50 [7] was 12.9 µM (inactive), the GI50 [8] was 16.9 µM (inactive) and the GI50 [9] was 14.1 µM (inactive). The GI50 [10] was 11.6 µM (inactive), the GI50 [11] was 33.2 µM (inactive) and the GI50 [12] was 16.7 µM (inactive). The GI50 [13] was 8.91 µM (inactive), the GI50 [15] was 21.3 µM (inactive) and the GI50 [16] was 21.2 µM (inactive). The GI50 [17] was 0.887 µM (active), the GI50 [18] was 13 µM (inactive) and the GI50 [19] was 14.3 µM (inactive). The GI50 [20] was 12.1 µM (inactive), the GI50 [21] was 29 µM (inactive) and the GI50 [22] was 17.6 µM (inactive). The GI50 [23] was 17.4 µM (inactive), the GI50 [24] was 13.7 µM (inactive) and the GI50 [25] was 9.91 µM (inactive). For the same compound, the GI50 [26] was 14.7 µM (inactive), the GI50 [27] was 14.6 µM (inactive) and the GI50 [28] was 12.3 µM (inactive). For the same compound, the GI50 [29] was 17.1 µM (inactive), the GI50 [30] was 14.4 µM (inactive) and the GI50 [31] was 17 µM (inactive). The GI50 [32] was 16.3 µM (inactive), the GI50 [34] was 16.8 µM (inactive) and the GI50 [35] was 9.4 µM (inactive). For the same compound, the GI50 [36] was 23.1 µM (inactive), the GI50 [37] was 16.1 µM (inactive) and the GI50 [38] was 8.07 µM (inactive). The GI50 [39] was 23.5 µM (inactive), the GI50 [40] was 15.1 µM (inactive) and the GI50 [41] was 16.4 µM (inactive). The GI50 [45] was 12.1 µM (inactive), the GI50 [47] was 10.1 µM (inactive) and the GI50 [48] was 14.2 µM (inactive). For the same compound, the GI50 [49] was 18.1 µM (inactive), the GI50 [50] was 24.8 µM (inactive) and the GI50 [51] was 15.5 µM (inactive). For the same compound, the GI50 [52] was 15.7 µM (inactive), the GI50 [53] was 17 µM (inactive) and the GI50 [54] was 23 µM (inactive). The GI50 [55] was 25.8 µM (inactive), the GI50 [57] was 15.3 µM (inactive) and the GI50 [58] was 6.37 µM (inactive). For the same compound, the GI50 [60] was 15.3 µM, the GI50 [61] was 24.4 µM (inactive) and the GI50 [62] was 15.4 µM (inactive). The GI50 [63] was 27.8 µM (inactive), the GI50 [64] was 15.2 µM (inactive) and the GI50 [65] was 14.5 µM (inactive). For the same compound, the GI50 [66] was 16.3 µM (inactive) and the GI50 [69] was 14.8 µM (inactive).
